Key:
[1] = target: Protein farnesyltransferase (Bos taurus, UniProt P29702+P49355); test: Inhibition of bovine farnesyltransferase; format: protein-complex assay
[2] = target: Geranylgeranyl transferase type I (Bos taurus, UniProt P29702+Q5EAD5); test: Inhibition of bovine Geranylgeranyltransferase; format: protein-complex assay
[3] = target: T1, Protein farnesyltransferase (Mus musculus) (UniProt Q61239+Q8K2I1); test: Percent inhibition of H-Ras transformed NIH-3T3-cell proliferation at 100 nM; format: functional, cell-based; settings: NIH3T3
[4] = target: Protein farnesyltransferase (Mus musculus, UniProt Q61239+Q8K2I1); test: (§1) Inhibition of H-Ras transformed NIH-3T3-cell proliferation; format: functional, cell-based; settings: nih3t3
[5] = target: T1, Protein farnesyltransferase (Mus musculus); test: as §1; format: functional; settings: concentration not given here

| IC50 [1] [nM] | IC50 [2] [nM] | inhibition [3] [%] | EC50 [4] [nM] | inhibition [5] [%] | SMILES |
| --- | --- | --- | --- | --- | --- |
| 0.32 | 565 | 49 | – | – | N#Cc1ccc(OCc2cncn2Cc2ccc(C#N)c(-c3cccc4ccccc34)c2)cc1 |
| 0.6 | > 10000 | 53 | – | – | Cc1ccc(-c2cc(C#N)ccc2COCc2cncn2Cc2ccc(C#N)cc2)cc1C |
| 0.65 | 1300 | – | 52 | – | N#Cc1ccc(Cn2cncc2COCc2ccc(C#N)cc2-c2ccc(OC(F)(F)F)cc2)cc1 |
| 2.2 | > 10000 | 0 | – | – | COc1cccc(-c2cc(C#N)ccc2COCc2cncn2Cc2ccc(Cl)cc2)c1 |
| 8.3 | > 10000 | 11 | – | – | N#Cc1ccc(COCc2cncn2Cc2ccc(Cl)cc2)c(-c2ccc3c(c2)OCO3)c1 |
| 1.4 | > 10000 | – | – | – | CCOc1cccc(-c2cc(C#N)ccc2COCc2cncn2Cc2ccc(Cl)cc2)c1 |
| 1.5 | > 10000 | 35 | – | – | COc1cccc(-c2cc(C#N)ccc2COCc2cncn2Cc2ccc(C#N)nc2)c1 |
| 0.9 | 420 | – | – | – | N#Cc1ccc(OCc2cncn2Cc2ccc(C#N)c(-c3cccc4ccccc34)c2)nc1 |
| 4.4 | > 10000 | 49 | – | – | COc1cccc(-c2cc(C#N)ccc2COCc2cncn2Cc2ccc(C#N)cn2)c1 |
| 4.8 | 1300 | 5 | – | – | N#Cc1ccc(Cn2cncc2COCc2ccc(C#N)c(-c3cccc4ccccc34)c2)cc1 |
| 0.81 | – | 54 | – | – | N#Cc1ccc(Cn2cncc2COCc2ccc(C#N)cc2-c2cccc3c2OCO3)cc1 |
| 0.37 | 730 | 10 | – | – | N#Cc1ccc(Cn2cncc2COCc2ccc(C#N)cc2-c2ccc(Cl)c(Cl)c2)cc1 |
| 96 | – | – | – | – | CS(=O)(=O)c1ccc(Cn2cncc2COCc2ccc(C#N)cc2-c2cccc(Cl)c2)cc1 |
| 0.96 | 2100 | – | – | – | N#Cc1ccc(COCc2cncn2Cc2ccc(C#N)cc2-c2cccc3ccccc23)cc1 |
| 0.58 | > 10000 | – | – | – | CCOc1cccc(-c2cc(C#N)ccc2COCc2cncn2Cc2ccc(C#N)nc2)c1 |
| 6.8 | 1400 | 0 | – | – | N#Cc1ccc(COCc2cncn2Cc2ccc(C#N)cc2-c2cccc3ccccc23)c(-c2ccc3c(c2)OCO3)c1 |
| 1.7 | 2200 | – | – | – | N#Cc1ccc(Cn2cncc2COCc2ccc(C#N)cc2-c2cccc(Cl)c2)nc1 |
| 3 | > 10000 | 43 | – | – | N#Cc1ccc(COCc2cncn2Cc2ccc(C#N)nc2)c(-c2cccc(Cl)c2)c1 |
| 0.49 | 990 | 54 | – | – | N#Cc1ccc(Cn2cncc2COCc2ccc(C#N)cc2-c2cccc(OC(F)(F)F)c2)cc1 |

| IC50 [1] [nM] | IC50 [2] [nM] | inhibition [3] [%] | EC50 [4] [nM] | inhibition [5] [%] | SMILES |
| --- | --- | --- | --- | --- | --- |
| 1.2 | 2300 | 52 | – | – | CCOc1ccc(-c2cc(C#N)ccc2COCc2cncn2Cc2ccc(C#N)cc2)cc1 |
| 0.92 | 3400 | 53 | – | – | N#Cc1ccc(Cn2cncc2COCc2ccc(C#N)cc2-c2ccc3ccccc3c2)cc1 |
| 4 | 1800 | 0 | – | – | N#Cc1ccc(Cn2cncc2COc2ccc(Cl)cc2-c2cccc(Cl)c2)cc1 |
| 1.3 | > 10000 | – | – | – | CC(=O)c1ccc(-c2cc(C#N)ccc2COCc2cncn2Cc2ccc(C#N)cc2)cc1 |
| > 1000 | – | – | – | – | CC1=C(Br)C=C(C#N)C(=O)C1Cn1cncc1COCc1ccc(C#N)cc1-c1ccc2c(c1)OCO2 (stereo unspecified) |
| 0.37 | 6800 | – | 7.7 | – | N#Cc1ccc(Cn2cncc2COCc2ccc(C#N)cc2-c2cccc(Cl)c2)cc1 |
| 4.3 | 8600 | – | – | – | N#Cc1ccc(Cn2cncc2COCc2ccc(C#N)cc2-c2ccc(C(F)(F)F)cc2)cc1 |
| 0.38 | 240 | – | – | – | N#Cc1ccc(Cn2cncc2COc2ccc(C#N)c(-c3cccc4ccccc34)c2)cc1 |
| 7.6 | > 10000 | 25 | – | – | COc1ccc(-c2cc(C#N)ccc2COCc2cncn2Cc2ccc(C#N)cc2)cn1 |
| 3 | > 10000 | – | – | – | N#Cc1ccc(COCc2cncn2Cc2ccc(C#N)nc2)c(-c2ccc3c(c2)OCO3)c1 |
| 0.65 | 220 | 5 | – | – | N#Cc1ccc(Cn2cncc2CNCc2ccc(C#N)c(-c3cccc4ccccc34)c2)cc1 |
| 10 | 87 | 0 | – | – | N#Cc1ccc(COCc2cncn2Cc2ccc(C#N)cc2-c2cccc(Cl)c2)c(-c2cccc(Cl)c2)c1 |
| 1.3 | 2300 | 43 | – | – | N#Cc1ccc(Cn2cncc2COCc2ccc(C#N)cc2-c2cccc3ccccc23)cc1 |
| 13 | – | 92 | – | – | CC(=O)Nc1cccc(-c2cc(C#N)ccc2COCc2cncn2Cc2ccc(C#N)cc2)c1 |
| 4.7 | 5500 | – | – | – | N#Cc1ccc(Cn2cncc2COCc2ccc(C#N)cc2-c2ccc3c(c2)OCO3)nc1 |
| 0.44 | 870 | 49 | – | – | CC(C)(C)c1ccc(-c2cc(C#N)ccc2COCc2cncn2Cc2ccc(C#N)cc2)cc1 |
| 0.62 | 8200 | – | – | 30 | N#Cc1ccc(Cn2cncc2COCc2ccc(Cl)cc2-c2cccc(Cl)c2)cc1 |
| 4.3 | 810 | 26 | – | – | N#Cc1ccc(Cn2cncc2COCc2cnc(C#N)cc2-c2cccc(Cl)c2)cc1 |

| SMILES | IC50 [1] [nM] | IC50 [2] [nM] | inhibition [3] [%] | EC50 [4] [nM] | inhibition [5] [%] |
| --- | --- | --- | --- | --- | --- |
| Cn1cncc1[C@@](N)(c1ccc(Cl)cc1)c1ccc2c(c1)c(-c1cccc(Cl)c1)cc(=O)n2C [TIPIFARNIB] | – | 1100 | – | – | – |
